Reference: patent US6524800B2, “Exploiting genomics in the search for new drugs” (Affymetrix, Inc., priority 1997, dated 2003)
Where two headings read alike, the source gives them in different places.

Experiments:
[1] = test system: human lung fibroblast cells; conditions: cited from earlier work
[2] = target: T1, Srb10 (Saccharomyces cerevisiae, UniProt P39073); experiment: kinase assay in immunoprecipitates, Srb10; type: biochemical; conditions: immunoprecipitated yeast kinase
T1 construct: made in house

[3] = target: T2, Cak1p (Saccharomyces cerevisiae, UniProt P43568); experiment: kinase assay in immunoprecipitates, Cak1p; type: biochemical; conditions: immunoprecipitated yeast kinase
T2 construct: made in house

[4] = target: T3, Pho85p (Saccharomyces cerevisiae, UniProt P17157); experiment: kinase assay in immunoprecipitates, Pho85p; type: biochemical, yeast; conditions: for inhibition of Pho85p (in words): immunoprecipitates
T3 construct: made in house

[5] = target: cdc2-cyclin B; experiment: purified kinase phosphorylation assay, cdc2-cyclin B; type: biochemical, Starfish
From the text: (§1) To examine the effects of a range of diverse substituents on the purine ring, we synthesized combinatorial libraries in which the 2, 6, and 9 positions could be varied starting with a 2-flouro-6-chloropurine framework. (FIG. 1A) (2,3). Substitution chemistry was used to install amines at the 2 and 6 positions, and a Mitsunobu reaction (4,5) was used to alkylate the N9 position of the purine core. The subsitution chemistry allows introduction of primary and secondary amines bearing a wide range of functional groups, whereas the Mitsunobu reaction tolerates primary and secondary alcohols lacking additional acidic hydrogens. Newly appended groups can be modified combinatorially in subsequent steps with a variety of chemistries including acylation, reductive amination, and Suzuki coupling reactions (6), During library synthesis, one position is held invariant to allow attachment to the solid support. Libraries are synthesized in a spatially separated format with either a pin apparatus (7) or polystyrene resin and screened for kinase inhibitors with a 96-well, solution-phase phosphorylation assay.
9. Starfish is the major source for cdc2-cyclin B kinase.

[6] = target: T4, Kin28p (Saccharomyces cerevisiae, UniProt P06242); experiment: kinase assay in immunoprecipitates, Kin28p; type: biochemical; conditions: immunoprecipitated yeast kinase
T4 construct: made in house

[7] = target: T5, Cdc28p (Saccharomyces cerevisiae, UniProt P00546); experiment: kinase assay in immunoprecipitates, Cdc28p; type: biochemical, yeast; conditions: for inhibition of Cdc28p (in words): immunoprecipitates
T5 construct: made in house

[8] = test system: mRNA levels of nearly all yeast genes; experiment: transcript profiling with high-density oligonucleotide expression arrays; type: cell-based, S. cerevisiae; conditions: for number of genes with greater than twofold change in transcript level: more than 6200 genes monitored; for YCRX13W SOL2 transcript INCREASE: FLA UNIQUE
Description: In addition to measuring the inhibitory effects of purine derivatives in kinase assays and assays of cell growth, their effects on the mRNA levels of nearly all yeast genes were determined with high-density oligonucleotide expression arrays (17, 18). These arrays (19, 20) make it possible to measure quantitatively and in parallel mRNA levels for a very large number of genes after any chemical, environmental, or genetic perturbation.
Yeast cultures were grown to late logarithmic phase (15), treated with 25 μM concentrations of the inhibitors for 2 hours, after which cellular polyadenylated mRNA was isolated and converted to biotin-labeled complementary RNA (cRNA) (17, 18). The labeled cRNA was then hybridized to a set of four arrays containing more than 260,000 25-nucleotide oligomers (20).
15. […] Three cultures [110 ml, in yeast extract, peptone, and dextrose (YPD)] were inoculated with single colonies of YRP1 (MAT, erg6::LEU2, pdr5::TRP1, snq2::HIS6) and grown at 30° C. with constant agitation in a water bath incubator. When the cell density reached an optical density (OD) of 0.9 (at a wavelength of 600 nm), 27.5 μl of a 100 mM dimethyl sulfoxide (DMSO) stock solution of 52 or flavopiridol or DMSO alone was added. After 2 hours the cells were harvested by centrifugation and flash frozen with liquid nitrogen. For the temperature-sensitive cdc28 mutants, three cultures (75 ml, YPD) of AFS 199 (cdc28-13), AA104 (cdc28-4), and their isogenic background strain AFS34 (MATa, ade2-1, his3-11, leu2-3, trp1-1, ura3) were grown from single colonies to an OD of 0.9 (600 nm) and harvested as described. Frozen cells were stored at […]

[9] = test system: drug-sensitized yeast strain; experiment: yeast growth inhibition; type: cell-based; conditions: Saccharomyces cerevisiae; strain with drug-sensitizing deletions (erg6, pdr5, snq2)
[10] = test system: yeast cells; experiment: yeast arrest morphology and FACS; type: cell-based
From the text: 16. The diminished growth inhibitory activity of compound 52Me is unlikely to result from poorer bioavailability because a similar N6 methylation is observed to increase the in vivo potency of a related series of purine-based inhibitors. The residual growth inhibitory activity of 52Me likely reflects activity against other cellular targets.

[11] = test system: four yeast CDKs (Cdc28p, Kin28p, Pho85p, and Srb10p) and the related kinase Cak1p; experiment: yeast kinase panel in immunoprecipitates; type: biochemical
[12] = test system: KM12 colon cancer cell line; experiment: NCI panel growth inhibition, KM12; type: cell-based, human
[13] = target: Protein kinase C1 (Homo sapiens, UniProt P05771); experiment: purified kinase assay, Protein kinase C1 (Table 1 r16); type: biochemical
From the text: as §1

[14] = test system: NCI-H522 non-small cell lung cancer cell line; experiment: NCI panel growth inhibition, NCI-H522; type: cell-based, human
[15] = target: Protein kinase C (Homo sapiens, UniProt Q02156); experiment: purified kinase assay, Protein kinase C (Table 1 r20); type: biochemical; conditions: Table 1 r20, isoform symbol not given
From the text: as §1

[16] = target: cdk5-p35 (Homo sapiens, UniProt Q00535); experiment: purified kinase assay, cdk5-p35; type: biochemical
From the text: as §1

[17] = target: cdk2-cyclin E (Homo sapiens, UniProt P24941); experiment: purified kinase assay, cdk2-cyclin E; type: biochemical
From the text: as §1

[18] = test system: NCI panel of 60 human tumor cell lines; experiment: NCI panel growth inhibition; type: cell-based
[19] = target: Protein kinase C (Homo sapiens, UniProt Q05513); experiment: purified kinase assay, Protein kinase C (Table 1 r22); type: biochemical; conditions: Table 1 r22, isoform symbol not given
From the text: as §1

[20] = target: Protein kinase C (Homo sapiens, UniProt P24723); experiment: purified kinase assay, Protein kinase C (Table 1 r21); type: biochemical; conditions: Table 1 r21, isoform symbol not given
From the text: as §1

[21] = target: cdk2-cyclin A (Homo sapiens, UniProt P24941); experiment: purified kinase assay, cdk2-cyclin A; type: biochemical
From the text: as §1

[22] = target: Protein kinase C (Homo sapiens, UniProt P05129); experiment: purified kinase assay, Protein kinase C (Table 1 r18); type: biochemical; conditions: Table 1 r18, isoform symbol not given
From the text: as §1

[23] = target: cGMP-dependent protein kinase (Homo sapiens, UniProt Q13976); experiment: purified kinase assay, cGMP-dependent protein kinase; type: biochemical
From the text: as §1

[24] = target: Protein kinase C2 (Homo sapiens, UniProt P05771); experiment: purified kinase assay, Protein kinase C2 (Table 1 r17); type: biochemical
From the text: as §1

[25] = target: Protein kinase C (Homo sapiens, UniProt P17252); experiment: purified kinase assay, Protein kinase C (Table 1 r15); type: biochemical; conditions: Table 1 r15, isoform symbol not given
From the text: as §1

[26] = target: Casein kinase 1; experiment: purified kinase assay, Casein kinase 1; type: biochemical, human
From the text: as §1

[27] = target: Protein kinase C (Homo sapiens, UniProt Q05655); experiment: purified kinase assay, Protein kinase C (Table 1 r19); type: biochemical; conditions: Table 1 r19, isoform symbol not given
From the text: as §1

[28] = target: c-jun NH2-terminal kinase; experiment: purified kinase assay, c-jun NH2-terminal kinase; type: biochemical, human
From the text: as §1

[29] = target: Insulin-receptor tyrosine kinase (Homo sapiens, UniProt P06213); experiment: purified kinase assay, Insulin-receptor tyrosine kinase; type: biochemical
From the text: as §1

[30] = target: cdk4-cyclin D1 (Homo sapiens, UniProt P11802); experiment: purified kinase assay, cdk4-cyclin D1; type: biochemical
From the text: as §1

[31] = target: GSK3- (Homo sapiens, UniProt P49841); experiment: purified kinase assay, GSK3-; type: biochemical
From the text: as §1

[32] = target: cAMP-dependent protein kinase (Homo sapiens, UniProt P17612); experiment: purified kinase assay, cAMP-dependent protein kinase; type: biochemical
From the text: as §1

[33] = target: erk1 (Homo sapiens, UniProt P27361); experiment: purified kinase assay, erk1; type: biochemical
From the text: as §1

[34] = immunoprecipitated yeast kinase
[35] = yeast, inhibitor versus untreated

T3 sequence (P17157 whole entry): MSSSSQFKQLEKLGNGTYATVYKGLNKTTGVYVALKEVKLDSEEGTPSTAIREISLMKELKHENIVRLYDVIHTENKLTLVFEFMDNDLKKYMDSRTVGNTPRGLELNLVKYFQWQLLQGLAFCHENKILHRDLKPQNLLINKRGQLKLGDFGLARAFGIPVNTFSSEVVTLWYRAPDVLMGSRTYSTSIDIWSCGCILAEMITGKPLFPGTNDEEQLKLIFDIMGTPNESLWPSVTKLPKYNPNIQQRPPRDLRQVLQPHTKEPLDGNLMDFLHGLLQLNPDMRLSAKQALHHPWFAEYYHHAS
T5 sequence (P00546 whole entry): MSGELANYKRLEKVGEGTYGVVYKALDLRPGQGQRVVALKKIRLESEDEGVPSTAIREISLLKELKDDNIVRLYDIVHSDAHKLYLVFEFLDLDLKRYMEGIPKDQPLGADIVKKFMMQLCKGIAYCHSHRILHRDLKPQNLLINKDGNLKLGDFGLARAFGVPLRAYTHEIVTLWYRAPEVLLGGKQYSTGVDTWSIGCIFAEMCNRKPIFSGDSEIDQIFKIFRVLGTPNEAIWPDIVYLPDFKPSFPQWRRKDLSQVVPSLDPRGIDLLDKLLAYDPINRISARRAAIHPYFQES
Chain of Insulin-receptor tyrosine kinase (P06213 28-1382): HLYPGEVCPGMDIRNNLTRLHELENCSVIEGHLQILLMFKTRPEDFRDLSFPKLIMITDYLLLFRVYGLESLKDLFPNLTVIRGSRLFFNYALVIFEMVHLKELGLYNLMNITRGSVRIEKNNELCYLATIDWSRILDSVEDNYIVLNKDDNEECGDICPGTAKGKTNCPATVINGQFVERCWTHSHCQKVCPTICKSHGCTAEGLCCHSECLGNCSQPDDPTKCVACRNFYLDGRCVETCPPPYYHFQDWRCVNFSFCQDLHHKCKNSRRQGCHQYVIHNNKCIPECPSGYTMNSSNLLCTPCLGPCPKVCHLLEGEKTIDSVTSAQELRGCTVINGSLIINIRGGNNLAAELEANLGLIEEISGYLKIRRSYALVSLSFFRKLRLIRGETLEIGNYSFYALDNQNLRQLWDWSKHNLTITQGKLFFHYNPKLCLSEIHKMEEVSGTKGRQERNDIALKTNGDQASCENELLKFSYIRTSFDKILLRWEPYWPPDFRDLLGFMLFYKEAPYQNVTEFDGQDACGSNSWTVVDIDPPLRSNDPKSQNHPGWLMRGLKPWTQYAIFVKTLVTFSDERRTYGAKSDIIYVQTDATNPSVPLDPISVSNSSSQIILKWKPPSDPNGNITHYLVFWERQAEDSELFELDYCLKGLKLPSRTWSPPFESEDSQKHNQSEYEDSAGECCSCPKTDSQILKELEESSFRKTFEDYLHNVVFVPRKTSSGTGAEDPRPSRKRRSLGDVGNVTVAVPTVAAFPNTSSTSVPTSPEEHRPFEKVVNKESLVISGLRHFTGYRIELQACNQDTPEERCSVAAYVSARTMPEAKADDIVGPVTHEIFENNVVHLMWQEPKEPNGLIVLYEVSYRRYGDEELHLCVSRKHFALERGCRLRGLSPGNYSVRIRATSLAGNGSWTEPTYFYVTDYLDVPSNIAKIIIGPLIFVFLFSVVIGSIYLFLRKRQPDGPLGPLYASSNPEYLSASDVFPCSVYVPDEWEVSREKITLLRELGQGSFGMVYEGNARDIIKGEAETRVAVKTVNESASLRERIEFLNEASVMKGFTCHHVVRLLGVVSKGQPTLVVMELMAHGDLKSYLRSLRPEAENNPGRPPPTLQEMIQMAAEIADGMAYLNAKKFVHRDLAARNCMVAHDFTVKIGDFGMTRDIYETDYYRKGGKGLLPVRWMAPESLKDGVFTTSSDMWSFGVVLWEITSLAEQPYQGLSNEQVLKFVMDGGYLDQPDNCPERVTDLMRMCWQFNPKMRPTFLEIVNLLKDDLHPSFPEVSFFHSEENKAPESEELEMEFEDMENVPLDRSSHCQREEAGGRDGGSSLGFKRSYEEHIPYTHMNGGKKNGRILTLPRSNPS
Chain of cGMP-dependent protein kinase (Q13976 whole entry): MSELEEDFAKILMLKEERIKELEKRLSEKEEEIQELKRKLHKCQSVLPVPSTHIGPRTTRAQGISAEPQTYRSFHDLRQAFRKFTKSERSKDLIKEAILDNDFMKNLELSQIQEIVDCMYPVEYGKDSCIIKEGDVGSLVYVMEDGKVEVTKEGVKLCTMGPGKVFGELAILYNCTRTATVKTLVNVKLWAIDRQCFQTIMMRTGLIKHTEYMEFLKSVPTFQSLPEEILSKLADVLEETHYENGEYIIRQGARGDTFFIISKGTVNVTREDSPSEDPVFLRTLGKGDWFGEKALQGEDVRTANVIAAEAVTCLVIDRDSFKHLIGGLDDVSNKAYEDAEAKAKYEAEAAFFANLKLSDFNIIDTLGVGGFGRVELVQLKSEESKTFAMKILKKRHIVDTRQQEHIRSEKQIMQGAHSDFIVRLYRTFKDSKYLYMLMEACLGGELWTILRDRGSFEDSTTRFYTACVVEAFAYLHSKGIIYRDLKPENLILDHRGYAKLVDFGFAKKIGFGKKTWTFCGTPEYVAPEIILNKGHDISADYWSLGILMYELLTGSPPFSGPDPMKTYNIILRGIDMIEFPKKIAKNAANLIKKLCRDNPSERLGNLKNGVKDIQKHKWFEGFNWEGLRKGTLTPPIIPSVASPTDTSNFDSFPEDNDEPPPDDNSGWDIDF
Chain of GSK3- (P49841 whole entry): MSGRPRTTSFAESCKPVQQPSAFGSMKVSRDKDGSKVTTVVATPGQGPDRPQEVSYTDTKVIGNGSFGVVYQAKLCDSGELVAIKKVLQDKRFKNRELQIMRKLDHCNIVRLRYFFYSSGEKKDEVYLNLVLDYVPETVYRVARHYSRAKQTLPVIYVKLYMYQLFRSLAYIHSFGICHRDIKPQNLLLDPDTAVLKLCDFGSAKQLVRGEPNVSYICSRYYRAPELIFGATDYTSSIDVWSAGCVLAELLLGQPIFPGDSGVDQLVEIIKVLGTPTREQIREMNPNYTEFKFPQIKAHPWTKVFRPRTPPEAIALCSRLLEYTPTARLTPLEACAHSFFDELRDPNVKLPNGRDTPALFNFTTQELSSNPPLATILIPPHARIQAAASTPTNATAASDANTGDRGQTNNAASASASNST
Chain of cdk5-p35 (Q00535 whole entry): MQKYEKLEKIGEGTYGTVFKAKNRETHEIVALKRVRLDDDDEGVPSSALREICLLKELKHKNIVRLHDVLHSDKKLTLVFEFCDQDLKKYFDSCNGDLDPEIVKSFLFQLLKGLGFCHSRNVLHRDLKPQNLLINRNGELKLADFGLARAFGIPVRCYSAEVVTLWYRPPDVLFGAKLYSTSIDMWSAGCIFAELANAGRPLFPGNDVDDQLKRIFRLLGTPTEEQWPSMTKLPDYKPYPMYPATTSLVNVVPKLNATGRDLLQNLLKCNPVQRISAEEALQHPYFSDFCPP
Chain of cdk5-p35 (Q15078 whole entry partner): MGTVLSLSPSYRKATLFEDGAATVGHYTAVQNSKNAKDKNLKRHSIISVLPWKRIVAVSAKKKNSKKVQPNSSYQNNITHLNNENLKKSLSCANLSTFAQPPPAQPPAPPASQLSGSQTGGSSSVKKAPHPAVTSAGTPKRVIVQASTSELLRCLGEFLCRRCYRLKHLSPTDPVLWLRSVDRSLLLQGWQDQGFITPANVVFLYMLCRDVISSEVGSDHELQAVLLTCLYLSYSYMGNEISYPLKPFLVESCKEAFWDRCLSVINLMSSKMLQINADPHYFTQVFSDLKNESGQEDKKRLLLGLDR
Chain of Protein kinase C (Homo sapiens, UniProt Q02156) (Q02156 whole entry, canonical isoform): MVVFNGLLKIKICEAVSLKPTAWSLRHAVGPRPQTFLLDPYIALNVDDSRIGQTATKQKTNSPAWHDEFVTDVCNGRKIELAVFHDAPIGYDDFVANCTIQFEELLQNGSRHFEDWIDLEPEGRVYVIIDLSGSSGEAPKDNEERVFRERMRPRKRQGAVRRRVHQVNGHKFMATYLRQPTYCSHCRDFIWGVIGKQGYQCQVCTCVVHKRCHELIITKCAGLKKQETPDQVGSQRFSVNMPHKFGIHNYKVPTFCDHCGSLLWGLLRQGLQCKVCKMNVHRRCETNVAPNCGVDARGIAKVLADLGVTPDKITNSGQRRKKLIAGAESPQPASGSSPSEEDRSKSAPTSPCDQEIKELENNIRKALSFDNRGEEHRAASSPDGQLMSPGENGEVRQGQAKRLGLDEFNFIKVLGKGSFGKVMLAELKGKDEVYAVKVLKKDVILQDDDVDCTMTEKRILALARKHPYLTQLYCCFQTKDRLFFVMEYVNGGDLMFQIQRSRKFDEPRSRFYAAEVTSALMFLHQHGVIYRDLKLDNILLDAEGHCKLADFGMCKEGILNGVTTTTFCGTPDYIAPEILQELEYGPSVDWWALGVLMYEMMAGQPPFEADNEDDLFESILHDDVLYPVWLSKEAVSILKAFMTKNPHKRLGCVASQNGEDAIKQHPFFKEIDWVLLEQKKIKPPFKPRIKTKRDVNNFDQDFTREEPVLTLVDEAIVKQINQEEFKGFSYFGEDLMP
Chain of Protein kinase C (Homo sapiens, UniProt Q05513) (Q05513 whole entry, canonical isoform): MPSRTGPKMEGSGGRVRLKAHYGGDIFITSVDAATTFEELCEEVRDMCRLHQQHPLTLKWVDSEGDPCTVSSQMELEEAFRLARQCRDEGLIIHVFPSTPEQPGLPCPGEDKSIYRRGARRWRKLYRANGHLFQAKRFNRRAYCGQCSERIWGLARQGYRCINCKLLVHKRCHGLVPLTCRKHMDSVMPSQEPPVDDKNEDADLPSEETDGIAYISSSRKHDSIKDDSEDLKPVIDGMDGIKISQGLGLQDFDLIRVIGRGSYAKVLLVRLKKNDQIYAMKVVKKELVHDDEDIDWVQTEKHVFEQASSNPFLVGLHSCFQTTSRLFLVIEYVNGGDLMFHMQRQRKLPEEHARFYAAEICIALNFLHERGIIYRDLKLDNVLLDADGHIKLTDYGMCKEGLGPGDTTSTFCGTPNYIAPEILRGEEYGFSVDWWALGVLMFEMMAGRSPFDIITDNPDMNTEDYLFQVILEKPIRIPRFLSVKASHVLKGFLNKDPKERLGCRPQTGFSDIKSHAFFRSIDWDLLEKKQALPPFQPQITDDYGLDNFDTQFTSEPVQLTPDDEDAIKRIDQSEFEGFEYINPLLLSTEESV

## COc1ccc(CNc2nc(N(CCO)CCO)nc3c2ncn3C(C)C)cc1 [2-(bis-(hydroxylethyl)amino)-6-(4-methoxybenzylamino)-9-isopropylpurine]
[1]; high concentrations
  cell cycle inhibitory activity by FACS: both G1-S and G2-M inhibitory activity
[1]; lower concentrations
  cell cycle inhibitory activity by FACS: predominant G1-S inhibition

## CC(C)n1cnc2c(Nc3cccc(Cl)c3)nc(NCCO)nc21 [Compound 52, 2-(2-hydroxyethylamino)-6-(3-chloroanilino)-9-isopropylpurine]
[2]
  IC50: > 500 µM
[3]
  IC50: > 500 µM
[4]; [34]
  IC50: 2 µM
[4]
  inhibition of Pho85p (in words): inhibited
[5]
  IC50: 0.34 µM
[6]
  IC50: > 500 µM
[7]; [34]
  IC50: 7 µM
[7]
  inhibition of Cdc28p (in words): inhibited
[8]; 25 μM, 2 hours
  % of transcripts with greater than twofold change: 3%
  number of genes whose transcript levels were decreased at least threefold: ~50
  ribosomal protein transcripts decreased at least threefold: 14
  number of genes with greater than twofold change in transcript level: 194
[8]; C52 UNIQUE
  YKLO71W transcript Increase: 7-12 × Increase (C52)
[8]
  YCRX13W SOL2 transcript INCREASE: C52 - much smaller inc. (NL. 8 x at most) ×
[8]; [35]
  Y13R214W transcript INCREASES: (4-4.5 × for C52
  YBL002W HTB2 transcript DECREASES: (˜4.5 × for C52
  YBR296C transcript change (in words): VERY LARGE INCREASE (15-
  YDR281 C transcript INCREASE: ˜4.5-5.5 × INCREASE
  YGLI79 transcript change (in words): INCREASES C52 & FLA
  YGR108W (CLB 1) transcript DECREASES: (˜8 fold with C52
  YKRO97W PCK1 transcript INCREASES: ˜7-8 fold with C52
  YLR178c (TFS1) transcript INCREASES: INCREASES ˜6x
[9]
  GI50: 30 µM
[10]
  arrest morphology in yeast (in words): failed to cause a uniform arrest morphology
  synchronization of yeast cells by FACS (in words): did not reveal synchronization

## CC(C)n1cnc2c(N(C)c3cccc(Cl)c3)nc(NCCO)nc21 [Compound 52Me]
[11]
  inhibition of any of the CDKs tested (in words): did not inhibit
[8]; 25 μM, 2 hours
  % of transcripts with greater than twofold change: 0.03%
  number of genes with greater than twofold change in transcript level: 2
[9]
  GI50: 200 µM
[10]
  arrest morphology in yeast (in words): failed to cause a uniform arrest morphology
  synchronization of yeast cells by FACS (in words): did not reveal synchronization

## CN1CC[C@H](c2c(O)cc(O)c3c(=O)cc(-c4ccccc4Cl)oc23)[C@H](O)C1 [flavopiridol, reference compound]
[8]; 25 μM, 2 hours
  % of transcripts with greater than twofold change: 2%
  ribosomal protein transcripts decreased at least threefold: no ribosomal protein transcript levels decreased more than threefold
  number of genes with greater than twofold change in transcript level: 132
[8]
  YCRX13W SOL2 transcript INCREASE: 7.5-10 × INCREASE
[8]; [35]
  Y13R214W transcript INCREASES: 7-8.5 × for FLA
  YBL002W HTB2 transcript DECREASES: ˜2.7 × for FLA
  YBR296C transcript change (in words): VERY LARGE INCREASE (15-
  YGLI79 transcript change (in words): INCREASES C52 & FLA
  YGR108W (CLB 1) transcript DECREASES: ˜2.5-3 fold with FLA)
  YKRO97W PCK1 transcript INCREASES: ˜4 × with FLA fold
  YLR178c (TFS1) transcript INCREASES: INCREASES ˜6x
[9]
  GI50: 7 µM
[10]
  arrest morphology in yeast (in words): failed to cause a uniform arrest morphology

## CC(C)[C@H](CO)Nc1nc(Nc2cccc(Cl)c2)c2ncn(C(C)C)c2n1 [purvalanol A]
[12]
  GI50: 0.076 µM
[13]
  IC50: > 10 µM
[14]
  GI50: 0.347 µM
[15]
  IC50: > 100 µM
[16]
  IC50: 0.075 µM
[17]
  IC50: 0.035 µM
[4]
  inhibition of Pho85p (in words): inhibited
[18]; KM12 and NCI-H522 versus average GI50
  increase in sensitivity of two cell lines out of the 60: ~20 fold
[18]; read-out: average GI50 (50% growth inhibition), average over 60 cell lines
  GI50: 2 µM
[19]
  IC50: > 100 µM
[20]
  IC50: > 100 µM
[21]
  IC50: 0.07 µM
[22]
  IC50: > 10 µM
[23]
  IC50: > 10 µM
[24]
  IC50: > 10 µM
[7]
  inhibition of Cdc28p (in words): inhibited
[25]
  IC50: > 10 µM
[26]
  IC50: > 3.33 µM
[27]
  IC50: > 100 µM
[28]
  IC50: > 1 µM
[29]
  IC50: 5 µM
[30]
  IC50: 0.85 µM
[31]
  IC50: > 10 µM
[32]
  IC50: 9 µM
[33]
  IC50: 9 µM

## CC(C)[C@H](CO)Nc1nc(Nc2ccc(C(=O)O)c(Cl)c2)c2ncn(C(C)C)c2n1 [purvalanol B, 2-(1R-isopropyl-2-hydroxyethylamino)-6-(3-chloro-4-carboxyanilino)-9-isopropylpurine]
[23]
  IC50: > 100 µM
[26]
  IC50: > 3.33 µM
[28]
  IC50: > 10 µM
[29]
  IC50: 2.2 µM
[32]
  IC50: 3.8 µM
